{"source": "patent US12702650B2", "about": "“Methods and compositions for treating smith-magenis syndrome” (The Regents of the University of California, priority 2019, dated 2026)", "key": {"Lgl1^+/− mice [1]": {"tested_on": "Lgl1^+/− mice", "assay": "three-chamber social interaction test after NMDAR blocker injection", "assay_type": "in vivo, mouse", "method": "Pharmacological blockers of NMDARs were used, and animals tested in the three-chamber social interaction test.\nSocial interaction test—The social interaction test was performed as previously described (Yang et al., 2011). The sociability apparatus (Stoetling) has three 20 cm×40 cm chambers and two target enclosures 7 cm in diameter and 15 cm tall. During testing, the apparatus was surrounded by opaque panels to prevent mice from seeing out of the apparatus.\nAnimals were placed in the center chamber of the 3-chambered sociability apparatus with the doors between chambers closed for 10 minutes to habituate to the testing conditions. The doors were removed, and mice were allowed to explore the full field for 10 minutes. Non-littermate strain- and age-matched target mice from a separate cage were introduced during the social interaction phase of the test. For the social novelty phase, target mice from the social interaction phase were kept in the same location and a novel target mouse was introduced to the opposite chamber. For scoring of interaction time, ROIs containing the target mouse and novel object were selected in MATLAB. ROIs were selected by experimenters blinded to the animal genotypes or virus treatment.\nScoring for distance travelled and thigmotaxis during the open field test, as well as time spent interacting with objects in the Novel Object Recognition test and time spent interacting with target mice and objects in the Social Interaction test was performed using Autotyping 15.04 in MATLAB 2014b (Patel et al., 2014)(MathWorks)."}, "Lgl1^+/− mice [2]": {"tested_on": "Lgl1^+/− mice", "assay": "nestlet shredding (stereotyped repetitive behavior)", "assay_type": "in vivo, mouse", "conditions": "Lgl1^+/+ and Lgl1^+/− mice; ketamine injection vs saline", "method": "Nestlet shredding—Mice were removed from their home cage and placed individually into a clean novel cage containing a weighed piece of cotton nesting material of approximately 2.8 g. Mice were left in the cage for 60 minutes. At the end of the testing period, mice were returned to their home cage. Shredded material was separated from the undisturbed portion, which was weighed (Li et al., 2006)."}}}
{"compound": "CC12CC3CC(C)(C1)CC(N)(C3)C2", "note": "[memantine]", "values": [{"measurement": "preference for social interaction (social interaction phase)", "setting": "Lgl1^+/− mice [1]; intraperitoneal injection of 20 mg/kg memantine", "value": "strongly preferred social interaction"}]}
{"compound": "CNC1(c2ccccc2Cl)CCCCC1=O", "note": "(stereo not shown) [ketamine]", "values": [{"measurement": "preference for social interaction (social interaction phase)", "setting": "Lgl1^+/− mice [1]; intraperitoneal injection of 30 mg/kg ketamine, compared with control animals", "value": "clear preference for social interaction"}, {"measurement": "nestlet-shredding activity", "setting": "Lgl1^+/− mice [2]", "value": "did not change"}]}
{"compound": "C[C@]12N[C@H](Cc3ccccc31)c1ccccc12", "note": "[MK-801, dizocilpine]", "values": [{"measurement": "preference for social interaction (social interaction phase)", "setting": "Lgl1^+/− mice [1]; intraperitoneal injection of 0.3 mg/kg MK-801", "value": "strongly preferred social interaction"}]}
